From BindingDB's records for doi:10.1021/jm0603926 (Taigen Biotechnology, 2006) come the findings set out here.

pKi: −log10 of the molar value. Bounds are passed on as bounds.

This experiment addresses Replicase polyprotein 1ab (Severe acute respiratory syndrome coronavirus, UniProt P0C6X7). Put plainly: 3CL Protease Enzyme Assays. Conditions: pH 7.5; 25 °C. The method, then:
The effects of compound on enzyme activity were measured by using peptide cleavage assay. Cleavage products were resolved and analyzed with a reverse-phase HPLC. Quantification of peak areas was used to determine the extent of substrate conversion. Ki was calculated using the equation of Cheng and Prusoff.

Broadly, the pKi is the negative decadic logarithm of the Ki, by convention in mol/L.

The compound `CCOC(=O)/C=C/[C@H](C[C@@H]1CCNC1=O)NC(=O)[C@H](Cc1ccc(F)cc1)NC(=O)[C@@H](NC(=O)c1cc(C)on1)C(C)C` [AG7088 analogue 2a] showed a pKi of less than 5.00.

Compound `C[C@H](OC(C)(C)C)[C@H](NC(=O)OCc1ccccc1)C(=O)N[C@@H](CC1CCCCC1)C(=O)N[C@H](C=O)C[C@@H]1CCNC1=O` [benzyl N-[(1S,2S)-2-(tert-butoxy)-1-{[(1S)-2-cyclohexyl-1-{[(2S)-1-oxo-3-[(3S)-2-oxopyrrolidin-3-yl]propan-2-yl]carbamoyl}ethyl]carbamoyl}propyl]carbamate] gave a pKi of 7.28.
